Test results published in PMC7794844 (Molecules, 2020).
Like-named read-outs stand apart in the source and are kept apart here.

What was measured:
human ACE2 protein = human ACE2 protein (Homo sapiens, UniProt Q9BYF1); test: SPR affinity screen, compounds over immobilized ACE2-His (CM5 chip); assay type: binding
[1] = molecular target: T1, SARS-CoV-2 spike S-RBD protein (Severe acute respiratory syndrome coronavirus 2, UniProt P0DTC2); test: biochemical; assay type: binding
T1 construct: the S-RBD-mFc protein and ACE2-His protein were immobilized on a CM5 sensor chip; purchased Sino Biological (Beijing, China) 40592-V05H

S-RBD-His protein = molecular target: T2, S-RBD-His protein (Severe acute respiratory syndrome coronavirus 2, UniProt P0DTC2); test: Isothermal titration calorimetry (ITC) of compound with S-RBD-His; assay type: binding, SARS-CoV-2; details: 25 °C, read-out: affinity measured by ITC
T2 construct: spike S-RBD protein with His tag (26.6 kDa)

ACE2-S-RBD interaction = ACE2-S-RBD interaction (Severe acute respiratory syndrome coronavirus 2, UniProt P0DTC2); assay type: binding
[2] = Cytotoxicity in 293T-hACE2 cells (PrestoBlue / CCK); details: human, 293T-hACE2 cells
Procedure: (§1) First, cytotoxicity of 02B05 and 03D12 in 293T-hACE2 cells was assayed using PrestoBlue cell viability reagent. Briefly, the cells were seeded into 96-well plates and treated with different concentrations of compounds (a three-fold concentration series from 0.12 to 30 μM for 02B05 and 0.12 to 3.3 μM for 03D12). After incubation at 37 °C for 24 h, 10 μL PrestoBlue (10×) was added to each well and mixed well with the medium. After incubation at 37 °C for another 1 h, the fluorescent signals were read at an excitation wavelength of 560 nm and an emission wavelength of 590 nm, using the EnSpire multimode plate reader (Perkin Elmer, Waltham, MA, USA).

293T-hACE2 cells = test: as above
Procedure: as §1

[3] = system: SARS-CoV-2 pseudovirus in 293T-hACE2 cells; test: Pseudovirus entry assay (luciferase), SARS-CoV-2 pseudovirus; assay type: cell-based
[4] = system: VSV pseudovirus in 293T-hACE2 cells; assay type: cell-based, vesicular stomatitis virus

Chain of human ACE2 protein (Q9BYF1 18-740 limits assumed): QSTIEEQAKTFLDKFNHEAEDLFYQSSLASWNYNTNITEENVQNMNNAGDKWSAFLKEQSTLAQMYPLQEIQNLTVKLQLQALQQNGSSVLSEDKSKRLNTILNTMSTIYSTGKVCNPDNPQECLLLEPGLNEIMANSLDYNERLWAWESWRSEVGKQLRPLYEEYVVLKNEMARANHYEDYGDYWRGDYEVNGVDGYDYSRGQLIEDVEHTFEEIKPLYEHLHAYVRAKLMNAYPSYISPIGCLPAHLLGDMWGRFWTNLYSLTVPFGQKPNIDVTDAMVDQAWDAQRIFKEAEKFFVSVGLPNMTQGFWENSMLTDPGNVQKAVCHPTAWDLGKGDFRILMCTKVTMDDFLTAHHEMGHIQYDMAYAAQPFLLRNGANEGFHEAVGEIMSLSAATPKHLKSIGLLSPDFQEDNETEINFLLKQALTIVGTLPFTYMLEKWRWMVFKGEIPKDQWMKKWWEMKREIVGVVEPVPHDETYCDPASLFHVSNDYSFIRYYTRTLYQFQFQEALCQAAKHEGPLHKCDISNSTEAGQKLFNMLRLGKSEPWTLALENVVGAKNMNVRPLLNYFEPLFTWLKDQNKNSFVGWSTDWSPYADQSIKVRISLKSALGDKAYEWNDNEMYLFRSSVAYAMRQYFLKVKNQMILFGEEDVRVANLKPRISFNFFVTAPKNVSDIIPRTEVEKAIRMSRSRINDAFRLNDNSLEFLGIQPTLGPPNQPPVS

Compound	Kd (human ACE2 protein) [µM]	Kd [1] [µM]	koff [1] [s⁻¹]	kon [1] [M⁻¹ s⁻¹]	blocking effect on binding of S-RBD to ACE2 (competitive inhibition) (ACE2-S-RBD interaction)	koff (human ACE2 protein; read-out: koff) [s⁻¹]	kon (human ACE2 protein; read-out: kon) [M⁻¹ s⁻¹]	further results
C[C@@]1(C(=O)O)CC[C@]2(C)CC[C@]3(C)C4=CC(=O)c5c(cc(O)c(O)c5C=O)[C@]4(C)CC[C@@]3(C)[C@@H]2C1 [02B05, demethylzeylasteral]	1.74	1.04	0.00244	2350	strongest blocking effect			koff (human ACE2 protein): 0.00335 s⁻¹; kon (human ACE2 protein): 1990 M⁻¹ s⁻¹; Kd (S-RBD-His protein): 2090 nM; CC50 at 24 h [2]: 7.67 ± 0.79 µM; cell viability and cell morphology (293T-hACE2 cells; at 0.37 μM): no changes were observed; cell morphology (293T-hACE2 cells; at 1.1 μM): affected; effect on the activity (viability) of 293T-hACE2 cells (293T-hACE2 cells; concentration no more than 1.1 μM, CCK and PrestoBlue): no significant effect; inhibition at 0.37 µM ([3]; Severe acute respiratory syndrome-related coronavirus, 0.37 μM, 293T-hACE2 cells, 24 h post infection, read-out: inhibition of transduction of SARS-CoV-2 pseudovirus): ~7%; effect on the transduction of VSV pseudovirus [4]: no effect
C=CC(=O)Nc1cc(Nc2nccc(-c3c[nH]c4ccccc34)n2)c(OC)cc1N(C)CCN(C)C [02C15]		9.11	0.0215	2360				
CC(C)c1cc(C(C)C)c(CC(=O)NS(=O)(=O)Oc2ccccc2)c(C(C)C)c1 [02C19]						0.052	2340	Kd (human ACE2 protein; target ACE2, SPR, 1:1 binding model for kinetics): 22.2 µM
Nc1nc(Nc2ccc3c(c2)CC[C@@H](N2CCCC2)CC3)nn1-c1cc2c(nn1)-c1ccccc1CCC2 [02J06]	243	64.2	0.329	5120		0.636	2610	
COc1cc2c(Oc3ccc4[nH]c(C)cc4c3F)ncnc2cc1OCCCN1CCCC1 [03D12]	3.43	4.59	0.00964	2100	effective in blocking ACE2-S-RBD interaction	0.00948	2760	cytotoxicity (293T-hACE2 cells; concentration as high as 3.3 μM): not obvious; inhibitory activity in pseudovirus entry assay ([3]; any concentration tested (0.12 to 3.3 μM)): did not exhibit significant inhibitory activity; inhibitory activity in pseudovirus entry assay ([3]; at 3.3 μM): no obvious
Cl.N [ammonium chloride, reference compound]								infection by SARS-CoV-2 pseudovirus ([3]; positive control, 20 mM, 293T-hACE2 cells): almost abolished; infection by VSV pseudovirus [4]: almost abolished
